“And” between values parts separate entries of the source, which are not always exact repeats. Equal entries are not always repeated. Where two headings read alike, the source gives them in different places.
How the values were obtained:
[1] = target: T1, endogenous GABAB receptor in CGNs (Mus musculus, UniProt Q9WV18); assay: cell-based; design: species or system primary cerebellar granule neurons (CGNs); BRET G protein sensor (Galpha-Nluc / Venus-Ggamma2), agonist-induced change of BRET
T1 construct: gene Gabbr1; native receptor, primary cerebellar granule neurons
T1 sequence (Q9WV18 whole entry): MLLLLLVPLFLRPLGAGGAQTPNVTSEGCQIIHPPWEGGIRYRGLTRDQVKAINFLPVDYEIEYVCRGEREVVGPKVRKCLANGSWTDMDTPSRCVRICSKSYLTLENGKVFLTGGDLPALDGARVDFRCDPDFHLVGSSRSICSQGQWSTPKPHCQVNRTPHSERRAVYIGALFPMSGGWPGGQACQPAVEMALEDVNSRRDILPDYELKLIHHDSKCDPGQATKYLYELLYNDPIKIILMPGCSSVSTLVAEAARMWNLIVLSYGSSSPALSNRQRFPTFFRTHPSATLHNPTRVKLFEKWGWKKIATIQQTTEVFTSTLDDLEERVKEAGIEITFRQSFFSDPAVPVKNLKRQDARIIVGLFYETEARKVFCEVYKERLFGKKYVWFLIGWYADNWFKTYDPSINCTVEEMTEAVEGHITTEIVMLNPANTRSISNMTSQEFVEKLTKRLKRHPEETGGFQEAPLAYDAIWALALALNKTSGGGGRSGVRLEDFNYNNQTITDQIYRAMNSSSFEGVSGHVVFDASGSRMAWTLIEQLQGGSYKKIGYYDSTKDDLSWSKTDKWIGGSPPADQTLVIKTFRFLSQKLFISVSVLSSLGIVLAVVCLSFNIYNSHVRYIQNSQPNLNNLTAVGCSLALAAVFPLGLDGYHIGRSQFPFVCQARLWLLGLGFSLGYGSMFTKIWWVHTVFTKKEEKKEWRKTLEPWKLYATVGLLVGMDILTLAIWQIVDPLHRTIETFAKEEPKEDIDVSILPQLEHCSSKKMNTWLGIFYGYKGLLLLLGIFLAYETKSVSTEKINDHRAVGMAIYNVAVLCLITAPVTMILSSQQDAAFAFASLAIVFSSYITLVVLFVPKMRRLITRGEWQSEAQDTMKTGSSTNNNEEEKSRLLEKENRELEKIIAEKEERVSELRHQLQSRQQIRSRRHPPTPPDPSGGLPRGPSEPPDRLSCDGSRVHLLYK
T1 sequence (Q80T41 whole entry partner): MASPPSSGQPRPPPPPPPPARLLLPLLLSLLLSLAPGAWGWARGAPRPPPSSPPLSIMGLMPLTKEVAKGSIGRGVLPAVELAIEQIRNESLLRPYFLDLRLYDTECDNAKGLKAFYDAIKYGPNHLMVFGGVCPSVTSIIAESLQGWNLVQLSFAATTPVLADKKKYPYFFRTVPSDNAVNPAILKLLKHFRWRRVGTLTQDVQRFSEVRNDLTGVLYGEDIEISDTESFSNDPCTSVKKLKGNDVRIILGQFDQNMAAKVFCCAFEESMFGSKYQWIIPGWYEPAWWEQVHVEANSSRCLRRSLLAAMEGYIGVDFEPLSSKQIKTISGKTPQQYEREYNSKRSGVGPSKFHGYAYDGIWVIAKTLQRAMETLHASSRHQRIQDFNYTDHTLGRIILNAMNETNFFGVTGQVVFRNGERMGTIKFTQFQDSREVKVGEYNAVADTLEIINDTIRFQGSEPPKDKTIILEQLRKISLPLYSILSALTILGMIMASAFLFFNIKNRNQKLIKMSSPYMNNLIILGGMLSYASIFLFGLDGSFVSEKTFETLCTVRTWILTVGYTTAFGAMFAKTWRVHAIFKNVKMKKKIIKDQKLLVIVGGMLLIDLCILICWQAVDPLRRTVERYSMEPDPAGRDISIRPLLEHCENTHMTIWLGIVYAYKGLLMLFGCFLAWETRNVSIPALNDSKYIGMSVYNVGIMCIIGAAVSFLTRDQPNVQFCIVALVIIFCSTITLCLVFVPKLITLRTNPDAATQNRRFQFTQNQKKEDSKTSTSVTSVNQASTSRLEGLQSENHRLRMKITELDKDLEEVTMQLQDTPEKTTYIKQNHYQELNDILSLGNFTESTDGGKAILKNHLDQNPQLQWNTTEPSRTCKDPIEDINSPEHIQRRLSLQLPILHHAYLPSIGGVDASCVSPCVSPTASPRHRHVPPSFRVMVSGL
Text: (§1) Dotted line is the correlation of pEC50 determined with HEK293 cells. […] Data are mean ± SEM from at least three biologically independent experiments each performed in triplicate and analysed using one-way ANOVA with a Dunnett’s post-hoc multiple comparison test to determine significance. […] Sequence of the linker (L) before and after Nluc was indicated. […] The raw data and p-values are available in source data provided as a Source Data file.

[2] = target: T2, GABAB receptor (GB1 subunit) (Rattus norvegicus, UniProt Q9Z0U4); assay: cell-based; design: species or system HEK293; BRET G protein sensor (Galpha-Nluc / Venus-Ggamma2), agonist-induced change of BRET
T2 construct: gene Gabbr1; HA-tagged rat GB1 with Flag-tagged rat GB2 expressed in HEK293 cells; with GABAB2 (GB2)
T2 sequence (Q9Z0U4 20-960): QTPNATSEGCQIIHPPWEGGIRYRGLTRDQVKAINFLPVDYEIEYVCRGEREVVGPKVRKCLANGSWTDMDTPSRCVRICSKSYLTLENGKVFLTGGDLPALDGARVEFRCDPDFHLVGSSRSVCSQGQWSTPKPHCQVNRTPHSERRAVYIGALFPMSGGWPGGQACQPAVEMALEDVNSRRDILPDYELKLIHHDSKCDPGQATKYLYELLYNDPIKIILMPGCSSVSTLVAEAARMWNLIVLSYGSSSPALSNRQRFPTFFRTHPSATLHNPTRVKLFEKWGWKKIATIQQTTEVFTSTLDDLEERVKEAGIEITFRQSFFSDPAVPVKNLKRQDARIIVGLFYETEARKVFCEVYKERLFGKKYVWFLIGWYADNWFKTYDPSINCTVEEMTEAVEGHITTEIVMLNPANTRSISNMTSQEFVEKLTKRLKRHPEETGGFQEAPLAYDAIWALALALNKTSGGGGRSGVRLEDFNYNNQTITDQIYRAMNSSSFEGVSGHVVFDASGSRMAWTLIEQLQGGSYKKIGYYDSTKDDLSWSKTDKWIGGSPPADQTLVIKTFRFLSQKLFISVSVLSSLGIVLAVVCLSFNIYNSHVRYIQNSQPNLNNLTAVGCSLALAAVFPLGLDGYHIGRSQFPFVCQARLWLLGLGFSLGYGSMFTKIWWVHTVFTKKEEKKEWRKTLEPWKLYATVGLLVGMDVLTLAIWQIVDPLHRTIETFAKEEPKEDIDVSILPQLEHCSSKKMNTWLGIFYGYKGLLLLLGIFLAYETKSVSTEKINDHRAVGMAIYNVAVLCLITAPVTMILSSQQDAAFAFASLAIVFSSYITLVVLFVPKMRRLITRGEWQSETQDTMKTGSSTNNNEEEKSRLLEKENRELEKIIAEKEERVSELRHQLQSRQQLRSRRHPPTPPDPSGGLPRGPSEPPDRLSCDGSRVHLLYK
T2 sequence (O88871 41-940 partner): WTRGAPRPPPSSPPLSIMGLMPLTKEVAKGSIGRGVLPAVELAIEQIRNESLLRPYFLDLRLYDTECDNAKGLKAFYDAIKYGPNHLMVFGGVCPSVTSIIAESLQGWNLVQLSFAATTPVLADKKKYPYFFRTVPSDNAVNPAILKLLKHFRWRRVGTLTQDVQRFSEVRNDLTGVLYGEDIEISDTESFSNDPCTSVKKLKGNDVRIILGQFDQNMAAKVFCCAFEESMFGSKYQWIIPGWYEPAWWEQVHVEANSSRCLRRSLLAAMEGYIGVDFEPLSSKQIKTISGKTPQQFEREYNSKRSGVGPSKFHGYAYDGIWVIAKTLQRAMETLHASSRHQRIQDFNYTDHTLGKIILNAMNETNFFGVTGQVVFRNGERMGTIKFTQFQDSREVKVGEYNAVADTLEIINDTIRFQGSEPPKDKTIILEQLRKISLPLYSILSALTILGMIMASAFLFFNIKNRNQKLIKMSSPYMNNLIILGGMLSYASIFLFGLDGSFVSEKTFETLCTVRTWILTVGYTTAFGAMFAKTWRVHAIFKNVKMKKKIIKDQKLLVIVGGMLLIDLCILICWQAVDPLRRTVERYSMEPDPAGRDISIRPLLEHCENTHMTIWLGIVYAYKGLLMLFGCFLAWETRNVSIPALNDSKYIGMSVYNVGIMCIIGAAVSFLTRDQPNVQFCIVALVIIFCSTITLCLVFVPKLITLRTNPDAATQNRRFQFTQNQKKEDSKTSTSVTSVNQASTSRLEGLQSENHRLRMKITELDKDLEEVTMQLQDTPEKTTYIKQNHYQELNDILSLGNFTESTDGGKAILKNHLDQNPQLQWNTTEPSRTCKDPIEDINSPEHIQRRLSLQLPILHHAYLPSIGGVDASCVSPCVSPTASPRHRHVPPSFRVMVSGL
Text: as §1

[3] = target: T3, endogenous cannabinoid CB1 receptor in CGNs (Mus musculus, UniProt P47746); assay: cell-based; design: species or system mouse primary cerebellar granule neurons (CGNs)
T3 construct: gene Cnr1; native receptor, primary cerebellar granule neurons
T3 sequence (P47746 whole entry): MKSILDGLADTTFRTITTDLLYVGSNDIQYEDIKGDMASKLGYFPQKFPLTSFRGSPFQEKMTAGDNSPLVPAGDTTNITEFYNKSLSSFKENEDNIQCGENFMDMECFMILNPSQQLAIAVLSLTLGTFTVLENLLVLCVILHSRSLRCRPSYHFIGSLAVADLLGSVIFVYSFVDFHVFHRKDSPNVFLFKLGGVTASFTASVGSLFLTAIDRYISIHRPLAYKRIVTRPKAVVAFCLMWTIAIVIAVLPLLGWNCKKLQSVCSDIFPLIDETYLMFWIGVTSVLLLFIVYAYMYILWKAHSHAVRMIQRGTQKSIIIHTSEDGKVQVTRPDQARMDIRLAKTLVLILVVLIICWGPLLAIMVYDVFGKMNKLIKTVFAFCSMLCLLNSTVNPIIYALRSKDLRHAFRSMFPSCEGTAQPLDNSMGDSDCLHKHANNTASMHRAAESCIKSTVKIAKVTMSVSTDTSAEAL

[4] = target: T4, cannabinoid CB1 receptor (Mus musculus, UniProt P47746); assay: cell-based; design: BRET between Galpha-Nluc and Venus-Ggamma2, agonist-induced Gi1 or GoA response of transfected mouse CB1; settings: read-out: Emax ± SEM (n) / Bay 59-3074
T4 construct: gene Cnr1; mouse CB1 cDNA expressed in HEK293 cells
T4 sequence (P47746 whole entry): as above
Experimental: Fig. 6 Difference of Gi1 and GoA responses by cannabinoid receptor CB1 agonists. a Detection of CB1 receptor in cell membranes of CGNs, mock-transfected HEK293 cells and HEK293 cells transfected with mouse CB1 cDNA (80 ng/well in 96-well plate), by western blotting. Values are mean ± SEM normalized as fold of CB1 expression in CGNs from three independent experiments. b Percentage of change in BRET ratio between Gα^Nluc and ^VenusGγ2 induced by [compound left out] in HEK293 cells (CB1 cDNA; 80 ng/well per 96-well plate) or CGNs for the indicated Gαi1, Gαi2, Gαi3, GαoA, GαoB or Gαz sensors (amounts of cDNA as in Fig. 2a). […] Data are analysed using unpaired t-test (two-tailed) to determine significance. ****p < 0.0001, *p < 0.05 and not significant (ns). c, d Change of BRET signal between Gα^Nluc and ^VenusGγ2 induced by the indicated CB1 receptor agonists in HEK293 cells and CGNs measured by Gi1 and GoA sensors. […] Inset, correlation of the agonist potencies (pEC50) between HEK293 cells and CGNs determined by the G protein sensors. Dotted lines are the correlation of pEC50 determined with HEK293 cells. […] Values are mean ± SEM normalized as fold of […] expression in CGNs from four independent experiments. c Expression of the Nluc-tagged Gα transfected in CGNs or in HEK293 cells in (a), measured by the luminescent signal at 480 nm. […]

[5] = target: T4, cannabinoid CB1 receptor; assay: cell-based; design: species or system HEK293
Text: The raw data and p-values are available in source data provided as a Source Data file.

[6] = target: T3, endogenous cannabinoid CB1 receptor in CGNs; design: species or system mouse primary cerebellar granule neurons (CGNs); settings: agonist
[7] = target: T5, endogenous GABAB receptor in cortical neurons (Mus musculus, UniProt Q9WV18); assay: cell-based; design: species or system primary cortical neurons; settings: read-out: pEC50 cortical neurons (converted)
T5 construct: gene Gabbr1; native receptor, primary cortical neurons
T5 sequence (Q9WV18 whole entry): as the sequence (Q9WV18 whole entry) above
T5 sequence (Q80T41 whole entry partner): as the sequence (Q80T41 whole entry partner) above
Text: (§2) Sequence of the linker (L) before and after Nluc was indicated. […] The raw data and p-values are available in source data provided as a Source Data file.

[8] = target: T6, endogenous GABAB receptor in hippocampal neurons (Mus musculus, UniProt Q9WV18); assay: cell-based; design: species or system primary hippocampal neurons; BRET G protein sensor (Galpha-Nluc / Venus-Ggamma2), agonist-induced change of BRET; settings: read-out: pEC50 hippocampal neurons (converted)
T6 construct: gene Gabbr1; native receptor, primary hippocampal neurons
T6 sequence (Q9WV18 whole entry): as the sequence (Q9WV18 whole entry) above
T6 sequence (Q80T41 whole entry partner): as the sequence (Q80T41 whole entry partner) above
Text: as §2

[9] = target: T1, endogenous GABAB receptor in CGNs; assay: cell-based; design: species or system primary cerebellar granule neurons (CGNs); settings: with 20 uM baclofen
Text: We have further validated these G protein sensors by measuring the potency of different orthosteric GABAB receptor ligands (Fig. 3a) in both CGNs and HEK293 cells. […] Similar results were obtained in the hippocampal neurons and cortical neurons (Supplementary Fig. 4b–d and Supplementary Table 1). […] Dotted line is the correlation of pEC50 determined with HEK293 cells. […] Data are mean ± SEM from at least three biologically independent experiments each performed in triplicate and analysed using one-way ANOVA with a Dunnett’s post-hoc multiple comparison test to determine significance. […] The raw data and p-values are available in source data provided as a Source Data file. Fig. 1 Design and validation of the Gi/o protein sensors in neurons. a Scheme of the BRET-based sensors to detect the activity of the endogenous GPCR in neurons. b Scheme of the Gαi/o^Nluc and ^VenusGγ2 constructs co-transfected in the neurons. Sequence of the linker (L) before and after Nluc was indicated. […] The data are representative of BRET ratios from five independent experiments. e Representative fluorescent images of Venus and DAPI in CGNs transfected with GαoA^Nluc and ^VenusGγ2 or in HEK293 cells transfected with GαoA^Nluc, Gβ1 and ^VenusGγ2 from three independent experiments. […] The data are representative of the mean ± SEM of BRET ratios from three independent experiments. […]

In the case of NCCC[PH](=O)O [APPA], the EC50 ([1]; Gi1 sensor) is reported as 741 nM, the EC50 ([1]; GoA sensor) is reported as 692 nM and the EC50 ([2]; pEC50 HEK293, Gi1 sensor) is reported as 21.4 nM. The EC50 ([2]; pEC50 HEK293, GoA sensor) was 17 nM.

With N#Cc1c(Oc2cccc(OS(=O)(=O)CCCC(F)(F)F)c2)cccc1C(F)(F)F [Bay 59-3074] the EC50 ([3]; pEC50 ± SEM (n) / Bay 59-3074) was 339 nM and 631 nM, the Emax ([4]; HEK293, B=Gi1, % of maximum response of reference agonist) was 50.3% and the Emax ([4]; HEK293, B=GoA, % of maximum response of reference agonist) was 56.3%. The EC50 ([5]; pEC50 ± SEM (n) / Bay 59-3074) was 708 nM and 1170 nM and the “Emax ± SEM (n) / Bay 59-3074” value [6] was 70.7 ± 1.1 (4) and 42.1 ± 3.9 (3).

Work on NCC(CC(=O)O)c1ccc(Cl)cc1 (stereo not drawn) [baclofen] yielded an EC50 ([7]; Gi1 sensor) of 1120 nM, an EC50 ([7]; GoA sensor) of 1780 nM and an EC50 ([1]; Gi1 sensor) of 4790 nM. It also gave an EC50 ([1]; GoA sensor) of 2690 nM, an EC50 ([8]; Gi1 sensor) of 1020 nM and an EC50 ([8]; GoA sensor) of 2630 nM.

For CCCCCCC(C)(C)c1ccc([C@@H]2C[C@H](O)CC[C@H]2CCCO)c(O)c1 [CP 55940], the EC50 ([3]; pEC50 ± SEM (n) / CP 55940, B=Gi1, G protein BRET sensor (Gi1 or GoA), CGNs) was 6.61 nM, the EC50 ([3]; pEC50 ± SEM (n) / CP 55940, B=GoA, G protein BRET sensor (Gi1 or GoA), CGNs) was 55 nM and the EC50 ([5]; pEC50 ± SEM (n) / CP 55940, B=Gi1, G protein BRET sensor (Gi1 or GoA), transfected HEK293) was 126 nM. It also gave an EC50 ([5]; pEC50 ± SEM (n) / CP 55940, B=GoA, G protein BRET sensor (Gi1 or GoA), transfected HEK293) of 166 nM.

For CP(=O)(O)CCCN [SKF 97541], the EC50 ([7]; Gi1 sensor) was 302 nM, the EC50 ([7]; GoA sensor) was 603 nM and the EC50 ([1]; Gi1 sensor) was 2340 nM. It also gave an EC50 ([1]; GoA sensor) of 2040 nM, an EC50 ([8]; Gi1 sensor) of 229 nM and an EC50 ([8]; GoA sensor) of 692 nM.

Compound C[C@@H](NC[C@H](O)CP(=O)(O)CCCCCNC(=O)CCc1ccc(O)c(I)c1)c1cccc(C(=O)O)c1 [CGP64213] has an IC50 ([9]; Gi1 sensor) of 28.2 nM and an IC50 ([9]; GoA sensor) of 25.7 nM.
